Reference: patent publication US10005767B2, “Compositions and methods for inhibition of the JAK pathway” (Rigel Pharmaceuticals, Inc., priority 2009, dated 2018)

tested on: human primary T-cells, IL-2 stimulated proliferation (JAK-1 and JAK-3 dependent; reported as JAK3 activity); test: Human primary T-cell proliferation stimulated by IL-2 (Example 3); assay type: cell-based; settings: Homo sapiens, T-cell, tested under conditions described in Example 3 (IL-2 stimulated human primary T-cell proliferation); read-out: ability to inhibit JAK3 activity, IC50 range (Table V)
Outline: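 Peripheral-blood human T-cells pre-activated via TCR/CD28, IL-2-starved overnight, then cultured 72 h at 37 °C with compound in Yssel's medium containing IL-2 (80 U/mL in cell suspension). Proliferation read as viable-cell ATP by CellTiter-Glo luminescence; reduction versus control taken as JAK pathway inhibition.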

Structure (SMILES)	IC50
Cc1cnc(Nc2cccc(C(C)N3CCC3)c2)nc1Nc1ccc2oc(=O)[nH]c2c1 (stereo not drawn) [Compound I-211, 5-(2-(3-(1-(azetidin-1-yl)ethyl)phenylamino)-5-methylpyrimidin-4-ylamino)benzo[d]oxazol-2(3H)-one]	< 500 nM
Cc1cnc(Nc2cccc(C(C)N3CCCC3)c2)nc1Nc1ccc2oc(=O)[nH]c2c1 (stereo not drawn) [Compound I-212, 5-(5-methyl-2-(3-(1-(pyrrolidin-1-yl)ethyl)phenylamino)pyrimidin-4-ylamino)benzo[d]oxazol-2(3H)-one]	< 500 nM
Cc1cnc(Nc2cccc(C(C)NCc3ccccc3)c2)nc1Nc1ccc2oc(=O)[nH]c2c1 (stereo not drawn) [Compound I-213, 5-(2-(3-(1-(benzylamino)ethyl)phenylamino)-5-methylpyrimidin-4-ylamino)benzo[d]oxazol-2(3H)-one]	< 500 nM
CCN(CC)C1CCN(C(C)c2cccc(Nc3ncc(C)c(Nc4ccc5oc(=O)[nH]c5c4)n3)c2)C1 (stereo not drawn) [Compound I-214, 5-(2-(3-(1-(3-(diethylamino)pyrrolidin-1-yl)ethyl)phenylamino)-5-methylpyrimidin-4-ylamino)benzo[d]oxazol-2(3H)-one]	< 500 nM
Cc1cnc(Nc2cccc(C(C)N3CCCCC3)c2)nc1Nc1ccc2oc(=O)[nH]c2c1 (stereo not drawn) [Compound I-215, 5-(5-methyl-2-(3-(1-(piperidin-1-yl)ethyl)phenylamino)pyrimidin-4-ylamino)benzo[d]oxazol-2(3H)-one]	< 500 nM
CCN(CC)C(C)c1cccc(Nc2ncc(C)c(Nc3ccc4oc(=O)[nH]c4c3)n2)c1 (stereo not drawn) [Compound I-216, 5-(2-(3-(1-(diethylamino)ethyl)phenylamino)-5-methylpyrimidin-4-ylamino)benzo[d]oxazol-2(3H)-one]	< 500 nM
Cc1cnc(Nc2cccc(C(C)N3CCOCC3)c2)nc1Nc1ccc2oc(=O)[nH]c2c1 (stereo not drawn) [Compound I-217, 5-(5-methyl-2-(3-(1-morpholinoethyl)phenylamino)pyrimidin-4-ylamino)benzo[d]oxazol-2(3H)-one]	< 500 nM
Cc1cnc(Nc2ccc(C(=O)NC3CCC3)c(C(F)(F)F)c2)nc1Nc1ccc2oc(=O)[nH]c2c1 [Compound I-218, N-cyclobutyl-4-(5-methyl-4-(2-oxo-2,3-dihydrobenzo[d]oxazol-5-ylamino)pyrimidin-2-ylamino)-2-(trifluoromethyl)benzamide]	< 500 nM
Cc1cnc(Nc2ccc(C(=O)Nc3ccccc3)c(C(F)(F)F)c2)nc1Nc1ccc2oc(=O)[nH]c2c1 [Compound I-219, 4-(5-methyl-4-(2-oxo-2,3-dihydrobenzo[d]oxazol-5-ylamino)pyrimidin-2-ylamino)-N-phenyl-2-(trifluoromethyl)benzamide]	< 500 nM
COc1cc(Nc2ncc(C)c(Nc3ccc4oc(=O)[nH]c4c3)n2)ccc1C(=O)NC1CC1 [Compound I-220, N-cyclopropyl-2-methoxy-4-(5-methyl-4-(2-oxo-2,3-dihydrobenzo[d]oxazol-5-ylamino)pyrimidin-2-ylamino)benzamide]	< 500 nM
COc1cc(Nc2ncc(C)c(Nc3ccc4oc(=O)[nH]c4c3)n2)ccc1C(=O)Nc1ccccc1 [Compound I-221, 2-methoxy-4-(5-methyl-4-(2-oxo-2,3-dihydrobenzo[d]oxazol-5-ylamino)pyrimidin-2-ylamino)-N-phenylbenzamide]	< 500 nM
Cc1cnc(Nc2ccc(C(=O)O)c(C(F)(F)F)c2)nc1Nc1ccc2oc(=O)[nH]c2c1 [Compound I-222, 4-(5-methyl-4-(2-oxo-2,3-dihydrobenzo[d]oxazol-5-ylamino)pyrimidin-2-ylamino)-2-(trifluoromethyl)benzoic acid]	500 to 5000 nM
Cc1cnc(Nc2ccc(C(=O)NC3CC3)c(C(F)(F)F)c2)nc1Nc1ccc2oc(=O)[nH]c2c1 [Compound I-223, N-cyclopropyl-4-(5-methyl-4-(2-oxo-2,3-dihydrobenzo[d]oxazol-5-ylamino)pyrimidin-2-ylamino)-2-(trifluoromethyl)benzamide]	< 500 nM
Cc1cnc(Nc2cc(OCC3CC3)cc(C(F)(F)F)c2)nc1Nc1ccc2oc(=O)[nH]c2c1 [Compound I-225, 5-(2-(3-(cyclopropylmethoxy)-5-(trifluoromethyl)phenylamino)-5-methylpyrimidin-4-ylamino)benzo[d]oxazol-2(3H)-one]	500 to 5000 nM
Cc1cnc(Nc2cc(OC3CCC3)cc(C(F)(F)F)c2)nc1Nc1ccc2oc(=O)[nH]c2c1 [Compound I-226, 5-(2-(3-cyclobutoxy-5-(trifluoromethyl)phenylamino)-5-methylpyrimidin-4-ylamino)benzo[d]oxazol-2(3H)-one]	500 to 5000 nM
Cc1cnc(Nc2cc(OCC3CCC3)cc(C(F)(F)F)c2)nc1Nc1ccc2oc(=O)[nH]c2c1 [Compound I-227, 5-(2-(3-(cyclobutylmethoxy)-5-(trifluoromethyl)phenylamino)-5-methylpyrimidin-4-ylamino)benzo[d]oxazol-2(3H)-one]	500 to 5000 nM
COc1cc(Nc2ncc(C)c(Nc3ccc4oc(=O)[nH]c4c3)n2)cc(C(C)=O)c1 [Compound I-229, 5-(2-(3-acetyl-5-methoxyphenylamino)-5-methylpyrimidin-4-ylamino)benzo[d]oxazol-2(3H)-one]	< 500 nM
Cc1cnc(Nc2cc(Cl)c(F)c(C(F)(F)F)c2)nc1Nc1ccc2oc(=O)[nH]c2c1 [Compound I-230, 5-(2-(3-chloro-4-fluoro-5-(trifluoromethyl)phenylamino)-5-methylpyrimidin-4-ylamino)benzo[d]oxazol-2(3H)-one]	500 to 5000 nM
COc1cc(Nc2ncc(C)c(Nc3ccc4oc(=O)[nH]c4c3)n2)cc(C(C)NC(C)C)c1 (stereo not drawn) [Compound I-231, 5-(2-(3-(1-(isopropylamino)ethyl)-5-methoxyphenylamino)-5-methylpyrimidin-4-ylamino)benzo[d]oxazol-2(3H)-one]	< 500 nM
CCCNC(C)c1cc(Nc2ncc(C)c(Nc3ccc4oc(=O)[nH]c4c3)n2)cc(OC)c1 (stereo not drawn) [Compound I-232, 5-(2-(3-methoxy-5-(1-(propylamino)ethyl)phenylamino)-5-methylpyrimidin-4-ylamino)benzo[d]oxazol-2(3H)-one]	< 500 nM
COc1cc(Nc2ncc(C)c(Nc3ccc4oc(=O)[nH]c4c3)n2)cc(C(C)NC2CC2)c1 (stereo not drawn) [Compound I-233, 5-(2-(3-(1-(cyclopropylamino)ethyl)-5-methoxyphenylamino)-5-methylpyrimidin-4-ylamino)benzo[d]oxazol-2(3H)-one]	< 500 nM
COc1cc(Nc2ncc(C)c(Nc3ccc4oc(=O)[nH]c4c3)n2)cc(C(C)N2CCCC2)c1 (stereo not drawn) [Compound I-234, 5-(2-(3-methoxy-5-(1-(pyrrolidin-1-yl)ethyl)phenylamino)-5-methylpyrimidin-4-ylamino)benzo[d]oxazol-2(3H)-one]	< 500 nM

same assay, conditions: tested under conditions described in Example 3 (IL-2 stimulated human primary T-cell proliferation); read-out: ability to inhibit JAK3 activity, IC50 range (Table V)

Structure (SMILES)	IC50
Cc1cnc(Nc2cc(OCC(C)C)cc(C(F)(F)F)c2)nc1Nc1ccc2oc(=O)[nH]c2c1 [Compound I-224, -(2-(3-isobutoxy-5-(trifluoromethyl)phenylamino)-5-methylpyrimidin-4-ylamino)benzo[d]oxazol-2(3H)-one]	500 to 5000 nM
COc1cc(Nc2ncc(C)c(Nc3ccc4oc(=O)[nH]c4c3)n2)cc(C(F)(F)F)c1 [Compound I-228, 5-(2-(3-deuteratedmethoxy-5-(trifluoromethyl)phenylamino)-5-methylpyrimidin-4-ylamino)benzo[d]oxazol-2(3H)-one]	< 500 nM
